Data reported in patent EP0620225B1, “Cephalosporin derivatives” (Basilea Pharmaceutica AG, priority 1993, dated 1994).
Converted amounts (≈) assume the structure as drawn.

Tests used:
S.aureus 6538 = test: Antibacterial spectrum (MIC), agar dilution; type: cell-based; details: Staphylococcus aureus, read-out: MIC
Method: (§1) In vitro activity was determined by minimum inhibitory concentration in a microorganism spectum by the agar dilution method in Mueller Hinton agar.

E.cloacae 908SSi = test: Antibacterial spectrum (MIC), agar dilution; type: cell-based; details: Enterobacter cloacae, read-out: MIC
Method: as §1

C.freundii 43 = test: Antibacterial spectrum (MIC), agar dilution; type: cell-based; details: Citrobacter freundii, read-out: MIC
Method: as §1

S.marcescens 69438 = test: Antibacterial spectrum (MIC), agar dilution; type: cell-based; details: Serratia marcescens, read-out: MIC
Method: as §1

X.maltophilia 1AC739 = test: Antibacterial spectrum (MIC), agar dilution; type: cell-based; details: Stenotrophomonas maltophilia, read-out: MIC
Method: as §1

M.catarrhalis RA21 = test: Antibacterial spectrum (MIC), agar dilution; type: cell-based; details: Moraxella catarrhalis, read-out: MIC
Method: as §1

E.faecalis 6 = test: Antibacterial spectrum (MIC), agar dilution; type: cell-based; details: Enterococcus faecalis, read-out: MIC
Method: as §1

N.meningitidis 69480 = test: Antibacterial spectrum (MIC), agar dilution; type: cell-based; details: Neisseria meningitidis, read-out: MIC
Method: as §1

E.coli 25922 = test: Antibacterial spectrum (MIC), agar dilution; type: cell-based; details: Escherichia coli, read-out: MIC
Method: as §1

L.monocytogenes BK23 = test: Antibacterial spectrum (MIC), agar dilution; type: cell-based; details: Listeria monocytogenes, read-out: MIC
Method: as §1

P.aeruginosa 27853 = test: Antibacterial spectrum (MIC), agar dilution; type: cell-based; details: Pseudomonas aeruginosa, read-out: MIC
Method: as §1

S.pneumoniae Q19 = test: Antibacterial spectrum (MIC), agar dilution; type: cell-based; details: Streptococcus pneumoniae, read-out: MIC
Method: as §1

P.mirabilis 2117 = test: Antibacterial spectrum (MIC), agar dilution; type: cell-based; details: Proteus mirabilis, read-out: MIC
Method: as §1

S.agalactiae QK44 = test: Antibacterial spectrum (MIC), agar dilution; type: cell-based; details: Streptococcus agalactiae, read-out: MIC
Method: as §1

H.influenzae 1 = test: Antibacterial spectrum (MIC), agar dilution; type: cell-based; details: Haemophilus influenzae, read-out: MIC
Method: as §1

S.aureus 734 MRSA = test: Antibacterial spectrum (MIC), agar dilution; type: cell-based; details: Staphylococcus aureus, read-out: MIC
Method: as §1

S.pyogenes B15 = test: Antibacterial spectrum (MIC), agar dilution; type: cell-based; details: Streptococcus pyogenes, read-out: MIC
Method: as §1

M.morganii 6H-137 = test: Antibacterial spectrum (MIC), agar dilution; type: cell-based; details: Morganella morganii, 6H137, read-out: MIC
Method: as §1

K.pneumoniae 418 = test: Antibacterial spectrum (MIC), agar dilution; type: cell-based; details: Klebsiella pneumoniae, read-out: MIC
Method: as §1

E.cloacae 908R = test: Antibacterial spectrum (MIC), agar dilution; type: cell-based; details: Enterobacter cloacae, read-out: MIC
Method: as §1

C.freundii 902 = test: Antibacterial spectrum (MIC), agar dilution; type: cell-based; details: Citrobacter freundii, read-out: MIC
Method: as §1

Acinetobacter sp.51-156 = test: Antibacterial spectrum (MIC), agar dilution; type: cell-based; details: SP.51156, read-out: MIC
Method: as §1

S.viridans group 016 = test: Antibacterial spectrum (MIC), agar dilution; type: cell-based; details: Streptococcus viridans, read-out: MIC
Method: as §1

P.vulgaris 1028 = test: Antibacterial spectrum (MIC), agar dilution; type: cell-based; details: Proteus vulgaris, read-out: MIC
Method: as §1

E.faecalis [1] = test: In vitro activity against selected species (MIC50, MIC90, range); type: cell-based; details: Enterococcus faecalis, medium MHA
Method: as §1

S.aureus MRSA = test: as above; type: cell-based; details: Staphylococcus aureus, medium MHA (Mueller Hinton Agar) +NaCl
Method: as §1

S.aureus MSSA = test: as above; type: cell-based; details: Staphylococcus aureus, medium MHB (Mueller Hinton Broth)
S.aureus Smith = test: Efficacy against systemic infections (septicemia) in mice; type: in vivo; details: Staphylococcus aureus, 96 h, sc 1 and 3 h after challenge, survival day 4
Method: (§2) Septicemia was induced in outbred Swiss albino mice (Jbm MoRo [specific pathogen free]; weight 16 to 20 g, Biomedical Research Laboratories, Füllinsdorf, Switzerland). Mice were infected by intraperitoneal injection of diluted overnight cultures of the test organisms. Bacterial challenge doses were 4-10 times the number of organisms required to kill 50% of untreated animals within 48 h. The test compounds were administered p.o. or s.c. 1 and 3 h after the bacterial challenge. To treat the infection with Pseudomonas aeruginosa BA an additional dose was given 5 h after challenge. Control and treatment groups at each dose were composed of five mice each. The 50% effective dose (ED50, in milligrams per kilogram) was calculated by probit analysis as described by Finney (Finney, D.J. 1978, Statistical method in biological assay, 3rd ed. Charles Griffin & Co., Ltd., London), from the survival rates on day 4 after infection.

Escherichia coli 25922 = test: as above; type: in vivo; details: 96 h, survival day 4
Method: as §2

M.catarrhalis = test: In vitro activity against selected species (MIC50, MIC90, range); type: cell-based; details: Moraxella catarrhalis, medium IsoB
S.viridans group = test: as above; type: cell-based; details: Streptococcus viridans
E.faecium = test: In vitro activity against selected species (MIC50, range); type: cell-based; details: Enterococcus faecium, medium MHA
Method: as §1

E.faecalis [2] = test: In vitro activity against selected species (MIC50, MIC90, range); type: cell-based; details: Enterococcus faecalis, medium IsoB
S.pneumoniae PEN-R = test: as above; type: cell-based; details: Streptococcus pneumoniae; for MIC: MIC range
[3] = medium IsoB (Isosensitest Broth)

- MIC (S.aureus 6538): 0.5 µg/mL (≈ 0.876 µM)
- MIC (E.cloacae 908SSi): 0.5 µg/mL (≈ 0.876 µM)
- MIC (C.freundii 43): 8 µg/mL (≈ 14 µM)
- MIC (S.marcescens 69438): 1 µg/mL (≈ 1.75 µM)
- MIC (X.maltophilia 1AC739): > 32 µg/mL
- MIC (M.catarrhalis RA21): > 16 µg/mL
- MIC (E.faecalis 6): 0.25 µg/mL (≈ 0.438 µM)
- MIC (N.meningitidis 69480): ≤ 0.06 µg/mL
- MIC (E.coli 25922): 0.12 µg/mL (≈ 0.21 µM)
- MIC (L.monocytogenes BK23): 2 µg/mL (≈ 3.51 µM)
- MIC (P.aeruginosa 27853): > 32 µg/mL
- MIC (S.pneumoniae Q19): ≤ 0.06 µg/mL
- MIC (P.mirabilis 2117): 0.12 µg/mL (≈ 0.21 µM)
- MIC (S.agalactiae QK44): 0.25 µg/mL (≈ 0.438 µM)
- MIC (H.influenzae 1): 0.25 µg/mL (≈ 0.438 µM)
- MIC (S.aureus 734 MRSA): 8 µg/mL (≈ 14 µM)
- MIC (S.pyogenes B15): ≤ 0.06 µg/mL
- MIC (M.morganii 6H-137): ≤ 0.06 µg/mL
- MIC (K.pneumoniae 418): 0.12 µg/mL (≈ 0.21 µM)
- MIC (E.cloacae 908R): 32 µg/mL (≈ 56.1 µM)
- MIC (C.freundii 902): 0.25 µg/mL (≈ 0.438 µM)
- MIC (Acinetobacter sp.51-156): 32 µg/mL (≈ 56.1 µM)
- MIC (S.viridans group 016): 0.5 µg/mL (≈ 0.876 µM)
- MIC (P.vulgaris 1028): 2 µg/mL (≈ 3.51 µM)
- MIC (E.faecalis [1]; MIC range): 0.5 to 1 µg/mL (≈ 0.876 to 1.75 µM)
- MIC50 (E.faecalis [1]): ≤ 0.5 µg/mL
- MIC90 (E.faecalis [1]): 1 µg/mL (≈ 1.75 µM)
- MIC (S.aureus MRSA; MIC range): 16 to 32 µg/mL (≈ 28 to 56.1 µM)
- MIC50 (S.aureus MRSA): 16 µg/mL (≈ 28 µM)
- MIC90 (S.aureus MRSA): 32 µg/mL (≈ 56.1 µM)
- MIC (S.aureus MSSA; MIC range): 0.5 to 1 µg/mL (≈ 0.876 to 1.75 µM)
- MIC50 (S.aureus MSSA): 0.5 µg/mL (≈ 0.876 µM)
- MIC90 (S.aureus MSSA): 0.5 µg/mL (≈ 0.876 µM)
- MIC (M.catarrhalis; MIC range): 1 to 64 µg/mL (≈ 1.75 to 112 µM)
- MIC50 (M.catarrhalis): 8 µg/mL (≈ 14 µM)
- MIC90 (M.catarrhalis): 16 µg/mL (≈ 28 µM)
- MIC50 (S.viridans group): 0.5 µg/mL (≈ 0.876 µM)
- MIC90 (S.viridans group): 2 µg/mL (≈ 3.51 µM)
- MIC (S.viridans group; MIC range): 0.12 to 4 µg/mL (≈ 0.21 to 7.01 µM)
- MIC (E.faecium; MIC range): 0.1 to 16 µg/mL (≈ 0.175 to 28 µM)
- MIC50 (E.faecium): 2 µg/mL (≈ 3.51 µM)
- MIC (E.faecalis [2]; MIC range): 0.25 to 1 µg/mL (≈ 0.438 to 1.75 µM)
- MIC50 (E.faecalis [2]): 0.5 µg/mL (≈ 0.876 µM)
- MIC90 (E.faecalis [2]): 1 µg/mL (≈ 1.75 µM)
- MIC (S.pneumoniae PEN-R; [3]): 0.12 to 0.25 µg/mL (≈ 0.21 to 0.438 µM)
- MIC (S.pneumoniae PEN-R; medium IsoB + 20% serum): 0.12 to 0.5 µg/mL
- MIC50 (S.pneumoniae PEN-R; [3]): ≤ 0.12 µg/mL
- MIC90 (S.pneumoniae PEN-R; [3]): ≤ 0.12 µg/mL
- MIC50 (S.pneumoniae PEN-R; medium IsoB + 20% serum): 0.25 µg/mL
SMILES: COc1ccc(N2CC/C(=C\C3=C(C(=O)O)N4C(=O)[C@@H](NC(=O)/C(=N\O)c5csc(N)n5)[C@H]4SC3)C2=O)cc1 [I]
- ED50 (S.aureus Smith): < 1 mg/kg
- ED50 (Escherichia coli 25922; Escherichia coli 25922, po (orally) 1 and 3 h after challenge): 4.5 mg/kg
- ED50 (Escherichia coli 25922; Escherichia coli, E.coli 25922, sc 1 and 3 h after challenge): < 0.3 mg/kg
